The values below come from patent publication US20110183969A1, “ANTIFUNGAL COMBINATION THERAPY” (priority 2008, published 2011).

What all share (experiment): MIC (YAG medium)
What all share (type): cell-based

The subject of assay [1] is Aspergillus fumigatus AF293. As to conditions: Aspergillus fumigatus; YAG medium; MIC banded into grades; AF293; read-out: MIC A. fumigatus (grade). In a few lines: (§1)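 OD 485 nm read-out after 24 h, 35° C; MIC = lowest concentration inhibiting growth >70% vs drug-free control, in mg/L. Medium YAG (1% glucose, 1% NH4Cl, 0.5% yeast extract); inoculum 1-2×10^4 cfu/mL; compound range 50-0.05 mg/L, repeated at 0.5-0.0005 mg/L […].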

The test system of another assay is Aspergillus niger. As to conditions: Aspergillus niger; YAG medium; MIC banded into grades; read-out: MIC A. niger (grade). In a few lines:
as §1

The next assay deals with Aspergillus flavus. As to conditions: Aspergillus flavus; YAG medium; MIC banded into grades; read-out: MIC A. flavus (grade). In outline:
as §1

Assay [2] has as its system Aspergillus fumigatus AF210. The conditions noted are these: Aspergillus fumigatus; YAG medium; MIC banded into grades; AF210; read-out: MIC A. fumigatus 210 (grade). In a few lines:
as §1

The test system of the next assay is Aspergillus terreus AT4. As to conditions: Aspergillus terreus; YAG medium; MIC banded into grades; AT4; read-out: MIC A. terreus (grade). In a few lines:
as §1

The subject of another assay is Aspergillus terreus AT49. The conditions noted are these: Aspergillus terreus; YAG medium; MIC banded into grades; AT49; read-out: MIC A. terreus 49 (grade). In a few lines: as §1

Converted amounts (≈) assume the structure as drawn.

Turning to `Cc1cc(C)nc(NCCN(C)c2ccc(NC(=O)C(=O)c3c(-c4ccccc4)cc4ccccn34)cc2)c1` [Example 69, N-(4-{[2-(4,6-dimethyl-pyridin-2-ylamino)-ethyl]-methyl-amino}-phenyl)-2-oxo-2-(2-phenyl-indolizin-3-yl)-acetamide], the MIC (in assay [1]; with Aspergillus niger; in the assay on Aspergillus flavus; in assay [2]; with Aspergillus terreus AT4; with Aspergillus terreus AT49) was under 1 µg/mL throughout.

On to `CN1CCN(c2ccc(NC(=O)C(=O)c3c(-c4ccccc4)cc4ccccn34)cc2-c2ncco2)CC1` [Example 19, N-[4-(4-methyl-piperazin-1-yl)-3-oxazol-2-yl-phenyl]-2-oxo-2-(2-phenyl-indolizin-3-yl)-acetamide], for which the MIC in assay [1] is over 10 µg/mL; with Aspergillus niger it was over 10 µg/mL; in the assay on Aspergillus flavus, over 10 µg/mL; in assay [2], over 10 µg/mL; in the assay on Aspergillus terreus AT4, 1 to 10 µg/mL (≈ 1.98 to 19.8 µM); with Aspergillus terreus AT49, 1 to 10 µg/mL (≈ 1.98 to 19.8 µM).

On to `Cc1ccc(N2CCN(c3ccc(NC(=O)C(=O)c4c(-c5ccccc5)cc5ccccn45)cc3)CC2)nc1` [Example 74, N-{4-[4-(5-Methyl-pyridin-2-yl)-piperazin-1-yl]-phenyl}-2-oxo-2-(2-phenyl-indolizin-3-yl)-acetamide], for which the MIC (in assay [1]; in the assay with Aspergillus niger; in the assay with Aspergillus flavus; in assay [2]; in the assay with Aspergillus terreus AT4; in the assay on Aspergillus terreus AT49) was under 1 µg/mL each time.

Regarding `Cc1cc(C)nc(N2CCN(c3ccc(NC(=O)C(=O)c4c(C(C)(C)C)cc5ccccn45)cc3)CC2)c1` [Example 62, 2-(2-tert-Butyl-indolizin-3-yl)-N-{4-[4-(4,6-dimethyl-pyridin-2-yl)-piperazin-1-yl]-phenyl}-2-oxo-acetamide], the MIC is over 10 µg/mL in assay [1]; over 10 µg/mL in the assay with Aspergillus niger; over 10 µg/mL in the assay with Aspergillus flavus; over 10 µg/mL in assay [2]; 1 to 10 µg/mL (≈ 1.96 to 19.6 µM) with Aspergillus terreus AT4; over 10 µg/mL in the assay on Aspergillus terreus AT49.

Take `Cc1cc(C)nc(N2CCN(c3ccc(NC(=O)C(=O)c4c(C5CCN(C)CC5)cc5ccccn45)cc3)CC2)c1` [Example 63, N-{4-[4-(4,6-Dimethyl-pyridin-2-yl)-piperazin-1-yl]-phenyl}-2-[2-(1-methyl-piperidin-4-yl)-indolizin-3-yl]-2-oxo-acetamide]: the MIC (in assay [1]; in the assay with Aspergillus niger; in the assay with Aspergillus flavus; in assay [2]; with Aspergillus terreus AT4; with Aspergillus terreus AT49) was over 10 µg/mL each time.

Take `O=C(Nc1ccc(N2CCN(CC3CCOCC3)CC2)cc1)C(=O)c1c(-c2ccccc2)cc2ccc(F)cn12` [Example 53, 2-(6-Fluoro-2-phenyl-indolizin-3-yl)-2-oxo-N-{4-[4-(tetrahydro-pyran-4-ylmethyl)-piperazin-1-yl]-phenyl}-acetamide]: the MIC in assay [1] was 1 to 10 µg/mL (≈ 1.85 to 18.5 µM); in the assay on Aspergillus niger, over 10 µg/mL; in the assay with Aspergillus flavus, 1 to 10 µg/mL (≈ 1.85 to 18.5 µM); in assay [2] it was 1 to 10 µg/mL (≈ 1.85 to 18.5 µM); in the assay on Aspergillus terreus AT4, 1 to 10 µg/mL (≈ 1.85 to 18.5 µM); in the assay with Aspergillus terreus AT49 it was 1 to 10 µg/mL (≈ 1.85 to 18.5 µM).

For `COCc1cc(N2CCN(c3cc(C)cc(C)n3)CC2)ccc1NC(=O)C(=O)c1c(-c2ccccc2)cc2ccccn12` [Example 83, N-{4-[4-(4,6-Dimethyl-pyridin-2-yl)-piperazin-1-yl]-2-methoxymethyl-phenyl}-2-oxo-2-(2-phenyl-indolizin-3-yl)-acetamide], the minimum inhibitory concentration (MIC) (in assay [1]; with Aspergillus niger; with Aspergillus flavus; in assay [2]; with Aspergillus terreus AT4; in the assay on Aspergillus terreus AT49) was under 1 µg/mL throughout.

On to `Cc1cc(C)nc(N2CCN(c3ccc(NC(=O)C(=O)c4c(-c5ccccc5)cc5ccccn45)c(C)c3)CC2)c1` [Example 80, N-{4-[4-(4,6-Dimethyl-pyridin-2-yl)-piperazin-1-yl]-2-methyl-phenyl}-2-oxo-2-(2-phenyl-indolizin-3-yl)-acetamide], for which the MIC (in assay [1]; in the assay on Aspergillus niger; in the assay with Aspergillus flavus; in assay [2]; with Aspergillus terreus AT4; in the assay with Aspergillus terreus AT49) was under 1 µg/mL throughout.

On to `Cc1cc(C)nc(N2CCN(c3ccc(NC(=O)C(=O)c4c(C5CCOCC5)cc5ccccn45)cc3)CC2)c1` [Example 66, N-{4-[4-(4,6-Dimethyl-pyridin-2-yl)-piperazin-1-yl]-phenyl}-2-oxo-2-[2-(tetrahydro-pyran-4-yl)-indolizin-3-yl]-acetamide], for which the minimal inhibitory concentration (MIC) (in assay [1]; in the assay on Aspergillus niger; in the assay with Aspergillus flavus; in assay [2]; in the assay with Aspergillus terreus AT4; in the assay with Aspergillus terreus AT49) was under 1 µg/mL each time.

Regarding `Cc1cc(C)nc(N2CCN(c3ccc(NC(=O)C(=O)c4c(C5CCCCC5)cc5ccccn45)cc3)CC2)c1` [Example 60, 2-(2-Cyclohexyl-indolizin-3-yl)-N-{4-[4-(4,6-dimethyl-pyridin-2-yl)-piperazin-1-yl]-phenyl}-2-oxo-acetamide], the MIC (in assay [1]; with Aspergillus niger; in the assay on Aspergillus flavus; in assay [2]; in the assay on Aspergillus terreus AT4; in the assay on Aspergillus terreus AT49) was under 1 µg/mL throughout.

As to `CS(=O)(=O)NC(=O)c1ccc(NC(=O)C(=O)c2c(-c3ccccc3)cc3ccccn23)cc1` [Example 5, N-(4-methanesulfonylaminocarbonyl-phenyl)-2-oxo-2-(2-phenyl-indolizin-3-yl)-acetamide], the minimum inhibitory concentration (MIC) (in assay [1]; with Aspergillus niger; in the assay with Aspergillus flavus; in assay [2]; with Aspergillus terreus AT4; with Aspergillus terreus AT49) was over 10 µg/mL throughout.

As for `O=C(Nc1ccc(N2CCN(c3ccc(CN4CCOCC4)cc3)CC2)cc1)C(=O)c1c(-c2ccccc2)cc2ccccn12` [Example 56, N-{4-[4-(4-Morpholin-4-ylmethyl-phenyl)-piperazin-1-yl]-phenyl}-2-oxo-2-(2-phenyl-indolizin-3-yl)-acetamide], the MIC (in assay [1]; in the assay on Aspergillus niger; with Aspergillus flavus; in assay [2]; in the assay with Aspergillus terreus AT4; with Aspergillus terreus AT49) was under 1 µg/mL throughout.

Take `Cc1cc(C)nc(N2CCN(c3ccc(NC(=O)C(=O)c4c(-c5ccccc5)cc5ccccn45)cc3)CC2)n1` [Example 44, N-{4-[4-(4,6-Dimethyl-pyrimidin-2-yl)-piperazin-1-yl]-phenyl}-2-oxo-2-(2-phenyl-indolizin-3-yl)-acetamide]: the minimal inhibitory concentration (MIC) (in assay [1]; with Aspergillus niger; in the assay on Aspergillus flavus; in assay [2]; with Aspergillus terreus AT4; with Aspergillus terreus AT49) was under 1 µg/mL throughout.

Take `COCc1cc(NC(=O)C(=O)c2c(-c3ccccc3)cc3ccccn23)ccc1N1CCN(c2cc(C)cc(C)n2)CC1` [Example 81, N-{4-[4-(4,6-Dimethyl-pyridin-2-yl)-piperazin-1-yl]-3-methoxymethyl-phenyl}-2-oxo-2-(2-phenyl-indolizin-3-yl)-acetamide]: the MIC (in assay [1]; in the assay on Aspergillus niger; in the assay on Aspergillus flavus; in assay [2]; in the assay with Aspergillus terreus AT4; with Aspergillus terreus AT49) was under 1 µg/mL in each case.

The term MIC denotes the lowest concentration found to suppress growth.
